Measured values reported in US20130005759A1, “SMALL MOLECULE MODIFIERS OF MICRORNA MIR-122” (North Carolina State University, priority 2010, published 2013).

Legend:
miR-21 = miR-21 luciferase reporter assay in HeLa-miR-21-Luc cells; type: cell-based; details: 10 μM, 48 hours
Experimental: Using the previously described HeLa-miR-21-Luc cell line (a stably transfected line harboring a miR-21 binding sequence in the 3′ UTR of a firefly luciferase gene),(9) cells were grown to 80% confluency (DMEM) and treated with either DMSO, the previously reported miR-21 inhibitor, or compounds 1 and 2 at 10 μM (1% DMSO final concentration). The cells were incubated for 48 hours at 37° C. (5% CO2) and then assayed with a Bright-Glo Luciferase Kit (Promega) and analyzed using a Wallac VICTOR^3V luminometer with a measurement time of 1 s and a delay time of 2 s (FIG. 4).

miR-122 [1] = assay: psiCHECK-miR122 dual luciferase reporter assay in Huh7 cells; type: cell-based, human; details: for EC50: Homo sapiens, Huh-7, read-out: EC50 (miR-122 inhibitors, luciferase dose response); for Renilla luciferase expression with psiCHECK-miR122 (in words): Huh7, 10 μM (antagomir transfected), normalized to DMSO; for increase in the relative luciferase signal / relative luciferase units (RLU) normalized to a DMSO control: Huh7, psiCHECK-miR122, 10 μM; for increase in the relative luciferase signal: 48 hours; for relative luciferase units (RLU) normalized to a DMSO control: mean ± SD of three independent assays
Excerpt: A miRNA small molecule modifier screen for miR-122 was developed based on the psiCHECK-2 (Promega) reporter plasmid (FIG. 9). This construct expresses both Renilla luciferase as well as firefly luciferase, allowing for the normalization of the signal to account for differential cellular viability and variability in transfection efficiency. The miR-122 target sequence was inserted downstream of the Renilla luciferase gene, between the PmeI and SgfI restriction sites. In another aspect of the invention, plasmids expressing luciferase or another reporter gene such as for example, fluorescent reporters (GFP and variants thereof, DsRed, etc.) or beta-galactosidase can be used to screen for small molecule modifiers of miR-122. The mi-122 target sequence may be upstream or downstream of the reporter gene. Multiple miR-122 target sites can also be inserted into or be present in the plasmid.
The presence of mature miR-122 will lead to a decrease in the Renilla luciferase signal (FIG. 1a). The ability to detect endogenous miR-122 was validated by transfecting the generated psiCHECK-miR122 construct into Huh7 and HeLa cells. After 48 hour incubation, the cells were assayed using a Dual Luciferase Assay Kit (Promega). In another embodiment, the cells can be incubated for about 24-96 hours. The Dual Luciferase Assay Kit provides a means to measure the amount of the luciferases by generating a luminescent signal. Using this assay the luminescence from the firefly luciferase reaction may be quenched while the luminescent reaction of Renilla luciferase can be activated. Other assays and procedures that can determine the amount of the one or more reporter genes or miR-122 expression, activity or function can be used. An example of another assay is Dual-Glo Assay (Promega).
The psiCHECK-miR122 vector was then employed in a small molecule screen in Huh7 cells to discover modifiers of miR-122 function. Other cells that express miR-122 such as HepG2 and Hep3B can be used in addition to or instead of Huh7 cells. An increase in the relative Renilla luciferase signal indicates a miR-122 inhibitor, while a reduction in the luciferase signal indicates a miR-122 activator. A genus of compounds that may have activity as modifiers of miR122 function are the Diversity Set II (1364 compounds) from the NCI Developmental Therapeutics Program was screened using Huh7 cells containing the psiCHECK-miR122 reporter. Cells were exposed to the small molecules and the relative luciferase signal was measured after 48 hours using a Dual Luciferase Assay Kit (Promega). In another embodiment the cells can be exposed to the small molecules for about 24-96 hours. As explained above, other assays and procedures that can determine the amount of the one or more reporter genes or miR-122 expression, activity or function can be used.
The analogs were screened for activity using the previously described miR-122 assay. All cells were treated with 10 μM of a compound and experiments were performed in triplicate to ensure statistical validity. The data was normalized to a 1% DMSO control and is reported in relative luciferase units (RLU). The standard deviation was calculated from three independent assays. Some analogs of miR-122 inhibitor compound 1 are:
Huh7 and HeLa cells were transfected at approximately 60% confluency with either the psiCHECK-Control plasmid (the original psiCHECK-2 plasmid containing no known miRNA binding site) or the psiCHECK-miR122 plasmid (0.5 μg) using X-tremGENE transfection reagent (3:2 reagent/DNA ratio; Roche) in Opti-Mem media (Invitrogen). All transfections were performed in triplicate for statistical analysis. The cells were incubated at 37° C. for 4 hours followed by the replacement of transfection media with standard DMEM growth media. After 48 hours of incubation the media was removed, cells were lysed and assayed with a Dual Luciferase Assay Kit (Promega) using a Wallac VICTOR^3V luminometer with a measurement time of 1 s and a delay time of 2 s. […]

pri-miR-122 = assay: quantitative RT PCR of pri-miR-122 in Huh7 cells; type: cell-based, human; details: Huh7, 10 μM, 48 hours, normalized to DMSO
Experimental: (§1) The activity of the small molecule modifiers was analyzed by quantitative RT PCR in order to measure their direct effects on miR-122 expression levels in Huh7 cells. […] All experiments were conducted in triplicate, and the data was normalized to a DMSO control.
Each treatment was conducted in triplicate to ensure statistical validity. Cells were then incubated at 37° C. for 48 hours (DMEM, 5% CO2). The media was removed, and cells were washed with PBS buffer (2×2 mL, pH 7.4) followed by RNA isolation with the mirPremier™ microRNA Isolation Kit (Aldrich). The RNA was quantified using a Nanodrop ND-1000 spectrophotometer and 10 ng of each RNA sample was reverse transcribed using the TaqMan™ microRNA Reverse Transcription Kit (Applied Biosystems) in conjunction with either the miR-122 or miR-21 TaqMan™ RT primer (16° C., 30 min; 42° C., 30 min; 85° C., 5 min). Quantitative Real Time PCR was conducted with a TaqMan™ 2× Universal PCR Master Mix and the appropriate TaqMan™ miRNA assay (Applied Biosystems) on a BioRad MyiQ RT-PCR thermocycler (1.3 μL RT PCR product; 95° C., 10 min; followed by 40 cycles of 95° C., 15 s; 60° C. 60 s). […]

miR-122 [2] = assay: quantitative RT PCR of mature miR-122 in Huh7 cells; type: cell-based, human; details: Huh7, 10 μM, 48 hours
Experimental: as §1
Each treatment was conducted in triplicate to ensure statistical validity. Cells were then incubated at 37° C. for 48 hours (DMEM, 5% CO2). The media was removed, and cells were washed with PBS buffer (2×2 mL, pH 7.4) followed by RNA isolation with the mirPremier™ microRNA Isolation Kit (Aldrich). The RNA was quantified using a Nanodrop ND-1000 spectrophotometer and 10 ng of each RNA sample was reverse transcribed using the TaqMan™ microRNA Reverse Transcription Kit (Applied Biosystems) in conjunction with either the miR-122 or miR-21 TaqMan™ RT primer (16° C., 30 min; 42° C., 30 min; 85° C., 5 min). Quantitative Real Time PCR was conducted with a TaqMan™ 2× Universal PCR Master Mix and the appropriate TaqMan™ miRNA assay (Applied Biosystems) on a BioRad MyiQ RT-PCR thermocycler (1.3 μL RT PCR product; 95° C., 10 min; followed by 40 cycles of 95° C., 15 s; 60° C. 60 s). Threshold cycles were used to determine miRNA copy numbers, and the levels of miR-122 and miR-21 were compared via determination of threshold cycle (Ct) and conversion to copy number (copy number=10[(Ct−37.4)/−3.3]).^17 The data was then normalized to the DMSO control. The samples were also analyzed by real time PCR for the presence of pri-miR-122 transcript using the previously described primers (5′ […] 3′ (SEQ ID NO:5) and 5′ […] 3′ (SEQ ID NO:6); IDT DNA) and iQ SYBR Green Supermix for the real time PCR (95° C., 3 min; followed by 40 cycles of 95° C., 15 s; 60° C. 60 s).^14

O=C(Nc1ccc2ccccc2c1)c1ccc(Cl)cc1Cl [Compound 1]
activity in miRNA-21 reporter (luciferase signal) (miR-21): no activity was found | EC50 (miR-122 [1]): 7.73 ± 0.38 µM | Renilla luciferase expression with psiCHECK-miR122 (in words) (miR-122 [1]): significant increase | increase in the relative luciferase signal (miR-122 [1]): 773±38% | relative luciferase units (RLU) normalized to a DMSO control (miR-122 [1]): 7.73±0.38 RLU | pri-miR-122 down-regulation to (remaining level) (pri-miR-122): 22% | knock-down of mature miR-122 levels relative to DMSO treated cells (miR-122 [2]): 45%

O=S(=O)(c1ccc2c(c1)CCCN2)N1CCC[C@H]2CCCC[C@@H]21 [Compound 2]
activity in miRNA-21 reporter (luciferase signal) (miR-21): no activity was found | EC50 (miR-122 [1]): 12.5 ± 1.25 µM | Renilla luciferase expression with psiCHECK-miR122 (in words) (miR-122 [1]): significant increase | increase in the relative luciferase signal (miR-122 [1]): 1251±125% | relative luciferase units (RLU) normalized to a DMSO control (miR-122 [1]): 12.51±1.25 RLU | pri-miR-122 down-regulation to (remaining level) (pri-miR-122): 3% | knock-down of mature miR-122 levels relative to DMSO treated cells (miR-122 [2]): 72%
